According to patent US20050256064A1, “9-Desoxoerythromycin compounds as prokinetic agents” (priority 2003, published 2005):
Converted amounts (≈) assume the structure as drawn. Like-named read-outs stand apart in the source and are kept apart here. One block for each compound: values may come before it.

What was measured:
rabbit duodenum strips = experiment: Chronic dosing tachyphylaxis model; conditions: for % of the initial contraction after the fourth dose: dosed at EC90 at 0, 30, 60 and 90 min, response at 0 min set as 100%
Protocol: Rabbit duodenum strips were qualified as described above and dosed with test compound at its EC90 concentration. The contraction was recorded. When peak contractile force was reached, carbachol (1 μM) was added, and any further contraction was recorded. The resulting contraction is expressed as a fraction of the 1 μM carbachol contraction. The test compound and carbachol were washed away by changing the bath solution twice. The procedure was repeated at 30, 60, and 90 min following the initial dosing.

[1] = target: hERG (human ether-a-go-go related gene) potassium channel (Homo sapiens, UniProt Q12809); experiment: in vitro
Source text: (§1) Stanat et al., Mol. Cellular Biochem., 254, 1-7 (2003), “Characterization of the Inhibitory Effects of Erythromycin and Clarithromycin on the HERG Potassium Channel”.

human motilin receptor [2] = target: T1, human motilin receptor (Homo sapiens, UniProt O43193); experiment: Motilin agonist potency (cell based assay); conditions: HEK293 cells expressing human motilin receptor
T1 construct: expressed in transfected cells; host or cells: HEK293
Protocol: The motilin agonist potency of compound I-b was evaluated in a cell based assay, according to the procedure disclosed in Carreras et al., Anal. Biochemistry, 300, 146-151 (2002), the disclosure of which is incorporated herein by reference. Briefly, in this method HEK293 cells are transformed with a synthetic gene for the human motilin receptor. Expression of the synthetic gene produces the human motilin receptor; then the activation of the receptor by the binding of a test compound thereto is measured.

rabbit duodenum tissue = experiment: Motilin agonist potency (tissue based assay), rabbit duodenum contractility; conditions: Oryctolagus cuniculus, rabbit duodenum contraction
Protocol: The motilin agonist potency of compound I-b also was evaluated using a tissue based assay, using rabbit duodenum tissue-based contractility assay, generally following the procedure of Depoortere et al., J. Gastrointestinal Motility, 1, 150-159 (1989), the disclosure of which is incorporated herein by reference. Briefly, this method measures the ability of a compound to induce contractions in rabbit duodenal tissue, a tissue that responds to motilin.
Strips of rabbit duodenum were tested and qualified for use in the assay by as follows. Segments of rabbit duodenum, 20-30 cm distal to the pylorus were split longitudinally. The mucosa was removed and 2×2×15 mm strips of longitudinal smooth muscle were sliced from the segments. The strips were bathed in oxygenated Krebs solution at 37° C., with 1.5 g of tension, and contractions measured auxotonically. […] Qualified strips were mounted on the test apparatus.
Compound I-b was dissolved in dimethylsulfoxide (DMSO) to a final concentration of 10 mM. […]
The EC50 (concentration producing a half-maximal effect) was calculated as follows. The basal tension was subtracted from the compound-induced tension for each reading. […] Both R and Rmax are expressed as a fraction of the 1 μM carbachol contraction and range from 0 to 1. […]

S. pneumoniae = experiment: Antibacterial activity, MIC by serial dilutions on 96-well microtiter plates; assay type: cell-based; conditions: for MIC: Streptococcus pneumoniae
cytochrome P450 3A4 = cytochrome P450 3A4 (Homo sapiens, UniProt P08684); experiment: Cytochrome P450 inhibition; assay type: in vitro ADME
Protocol: The inhibitory effect of compound I-b on cytochrome P450 3A4, the most abundant of the cytrochrome P450 enzymes responsible for the metabolism of many drugs, was determined, using a method based on Stresser et al., Drug Metabolism Disposition, 30 (7), 845-52. A strong inhibitory effect is undesirable, as indicative of a high probability of interference with other drugs.

hERG potassium channel = hERG potassium channel (Homo sapiens, UniProt Q12809); experiment: in vitro; conditions: human
Source text: as §1

human motilin receptor [3] = target: T1, human motilin receptor; conditions: HEK293 cells expressing human motilin receptor; as reported in Anal. Biochemistry; read-out: Motilin Agonist EC50; cited from earlier work

Chain of hERG potassium channel (Q12809 whole entry): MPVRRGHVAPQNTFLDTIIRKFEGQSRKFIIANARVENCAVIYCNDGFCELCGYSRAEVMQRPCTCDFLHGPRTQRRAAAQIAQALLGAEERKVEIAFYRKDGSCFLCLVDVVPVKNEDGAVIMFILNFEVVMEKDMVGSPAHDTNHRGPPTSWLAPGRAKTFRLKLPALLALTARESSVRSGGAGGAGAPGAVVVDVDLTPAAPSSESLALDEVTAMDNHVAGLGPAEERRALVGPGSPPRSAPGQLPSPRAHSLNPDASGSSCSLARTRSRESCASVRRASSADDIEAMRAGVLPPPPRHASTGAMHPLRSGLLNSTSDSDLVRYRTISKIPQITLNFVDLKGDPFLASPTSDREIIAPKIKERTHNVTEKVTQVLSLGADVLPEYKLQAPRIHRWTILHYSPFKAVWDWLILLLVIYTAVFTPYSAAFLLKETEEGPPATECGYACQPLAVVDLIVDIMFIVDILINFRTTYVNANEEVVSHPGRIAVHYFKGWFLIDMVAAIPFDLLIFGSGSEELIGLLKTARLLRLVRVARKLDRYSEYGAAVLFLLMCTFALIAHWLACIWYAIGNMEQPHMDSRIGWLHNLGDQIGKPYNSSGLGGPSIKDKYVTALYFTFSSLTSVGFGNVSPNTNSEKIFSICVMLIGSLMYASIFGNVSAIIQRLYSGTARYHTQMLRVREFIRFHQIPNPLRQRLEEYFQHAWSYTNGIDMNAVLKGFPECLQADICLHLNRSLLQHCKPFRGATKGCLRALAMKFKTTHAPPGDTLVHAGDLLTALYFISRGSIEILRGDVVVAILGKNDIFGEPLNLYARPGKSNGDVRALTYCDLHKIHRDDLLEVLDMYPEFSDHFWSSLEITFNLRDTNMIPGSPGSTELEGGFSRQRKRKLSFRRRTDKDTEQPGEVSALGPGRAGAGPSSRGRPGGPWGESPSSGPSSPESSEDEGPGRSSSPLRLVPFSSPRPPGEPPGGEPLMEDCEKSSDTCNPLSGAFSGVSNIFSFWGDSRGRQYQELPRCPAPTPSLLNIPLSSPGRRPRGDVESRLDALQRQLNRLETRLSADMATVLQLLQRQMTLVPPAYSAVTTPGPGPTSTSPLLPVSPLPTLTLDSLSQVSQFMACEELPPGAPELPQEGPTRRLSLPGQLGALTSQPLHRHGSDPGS
Chain of hERG (human ether-a-go-go related gene) potassium channel (Q12809 whole entry): as above
T1 sequence (O43193 whole entry): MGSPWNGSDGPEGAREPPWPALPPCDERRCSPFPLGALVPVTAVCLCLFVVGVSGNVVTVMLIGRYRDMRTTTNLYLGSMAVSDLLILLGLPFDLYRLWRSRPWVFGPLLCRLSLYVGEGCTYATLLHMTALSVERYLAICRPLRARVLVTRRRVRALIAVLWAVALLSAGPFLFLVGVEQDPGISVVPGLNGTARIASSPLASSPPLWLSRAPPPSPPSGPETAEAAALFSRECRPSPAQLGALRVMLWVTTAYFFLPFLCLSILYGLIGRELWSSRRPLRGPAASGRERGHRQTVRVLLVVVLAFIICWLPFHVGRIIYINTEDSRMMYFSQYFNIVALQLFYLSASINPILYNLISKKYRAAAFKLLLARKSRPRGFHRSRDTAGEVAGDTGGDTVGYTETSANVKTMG
Chain of cytochrome P450 3A4 (P08684 whole entry): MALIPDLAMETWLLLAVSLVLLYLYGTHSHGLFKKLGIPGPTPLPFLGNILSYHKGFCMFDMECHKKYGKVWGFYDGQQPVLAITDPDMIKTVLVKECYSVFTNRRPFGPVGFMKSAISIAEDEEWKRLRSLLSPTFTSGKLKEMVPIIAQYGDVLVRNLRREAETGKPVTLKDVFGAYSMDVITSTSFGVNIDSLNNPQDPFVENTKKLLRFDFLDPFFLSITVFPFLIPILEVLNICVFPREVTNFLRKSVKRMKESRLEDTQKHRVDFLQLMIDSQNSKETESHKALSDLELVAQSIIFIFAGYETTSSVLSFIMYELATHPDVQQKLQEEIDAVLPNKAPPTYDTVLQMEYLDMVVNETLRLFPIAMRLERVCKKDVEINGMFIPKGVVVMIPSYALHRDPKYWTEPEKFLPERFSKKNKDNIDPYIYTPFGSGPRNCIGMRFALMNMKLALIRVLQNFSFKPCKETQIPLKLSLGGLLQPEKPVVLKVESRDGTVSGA

Structure (SMILES): CCC1OC(=O)C(C)C(OC2CC(C)(OC)C(O)C(C)O2)C(C)C(OC2OC(C)CC(N(C)CCO)C2O)C(C)(O)CC(C)CC(C)C(O)C1(C)O (centres unmarked) [Compound I-e, N-Desmethyl-N-(2-hydroxyethyl)-9-desoxoerythromycin A]
% of the initial contraction after the fourth dose (rabbit duodenum strips): 85±11% | Inhibition (%) at Specified Compound Concentration ([1]; 10 µM): 57.1% | Inhibition (%) at Specified Compound Concentration ([1]; 30 µM): 84.3%

EC50 (human motilin receptor [2]): 1200 nM | EC90 (rabbit duodenum tissue; approximated as ten times EC50 and verified, read-out: EC90 (concentration producing 90% of the maximal effect)): 1800 nM | MIC (S. pneumoniae; ATCC6301, S. pneumoniae strain ATCC 6301, read-out: Minimum Inhibitory Concentration (MIC)): 50 µg/mL (≈ 66.8 µM) | MIC (S. pneumoniae; ATCC49619, S. pneumoniae strain ATCC 49619, read-out: Minimum Inhibitory Concentration (MIC)): 50 µg/mL (≈ 66.8 µM) | MIC (S. pneumoniae; ATCC700671, S. pneumoniae strain ATCC 700671, read-out: Minimum Inhibitory Concentration (MIC)): > 200 µg/mL | Ki (cytochrome P450 3A4): 9.9 µM
Structure (SMILES): CC[C@H]1OC(=O)[C@H](C)[C@@H](O[C@H]2C[C@@](C)(OC)[C@@H](O)[C@H](C)O2)[C@H](C)[C@@H](O[C@@H]2O[C@H](C)C[C@H](N(C)C(C)C)[C@H]2O)C(C)(O)C[C@@H](C)C[C@H](C)[C@@H](O)[C@]1(C)O (some centres unmarked) [Compound I-b, N-Desmethyl-N-isopropyl-9-desoxoerythromycin A]
EC50 (rabbit duodenum tissue; normalized to 1 μM carbachol, read-out: EC50 (concentration producing a half-maximal effect)): 180 nM | antibacterial activity (S. pneumoniae; erythromycin A sensitive strains of S. pneumoniae, in words): low antibacterial activity | tachyphylaxis effect (FIG. 1) (rabbit duodenum strips; contractile responses at 0, 30, 60, 90 min, in words): distinctly less pronounced than that of ABT 229 | % of the initial contraction after the fourth dose (rabbit duodenum strips): 39±13% | inhibition at 10 µM (hERG potassium channel): 74% | inhibition at 30 µM (hERG potassium channel): 95%

Structure (SMILES): CCC(C)N(C)[C@H]1C[C@@H](C)O[C@@H](O[C@@H]2[C@@H](C)[C@H](O[C@H]3C[C@@](C)(OC)[C@@H](O)[C@H](C)O3)[C@@H](C)C(=O)O[C@H](CC)[C@@](C)(O)[C@H](O)[C@@H](C)C[C@H](C)CC2(C)O)[C@@H]1O (some centres unmarked) [Compound I-c, N-Desmethyl-N-sec-butyl-9-desoxoerythromycin A]
inhibition at 10 µM (hERG potassium channel): 26.5% | inhibition at 30 µM (hERG potassium channel): 70.3%

Structure (SMILES): CC[C@H]1OC(=O)[C@H](C)[C@@H](O[C@H]2C[C@@](C)(OC)[C@@H](O)[C@H](C)O2)[C@H](C)[C@@H](O[C@@H]2O[C@H](C)C[C@H](N(C)C)[C@H]2O)[C@](C)(O)C[C@@H](C)C(=O)[C@H](C)[C@@H](O)[C@]1(C)O [Erythromycin A, reference compound]
MIC (S. pneumoniae; ATCC6301, read-out: Minimum Inhibitory Concentration (MIC)): 0.025 µg/mL (≈ 0.0341 µM) | MIC (S. pneumoniae; ATCC49619, read-out: Minimum Inhibitory Concentration (MIC)): 0.049 µg/mL (≈ 0.0668 µM) | MIC (S. pneumoniae; ATCC700671, read-out: Minimum Inhibitory Concentration (MIC)): 0.049 µg/mL (≈ 0.0668 µM)

Structure (SMILES): CC[C@H]1OC(=O)[C@H](C)[C@@H](OC2C[C@@](C)(OC)C[C@H](C)O2)[C@H](C)[C@@H](OC2O[C@H](C)C[C@H](N(C)CC)[C@H]2O)[C@@]2(C)CC(C)=C(O2)[C@H](C)[C@@H](O)[C@H]1C (some centres unmarked) [ABT 229]
EC50 (human motilin receptor [3]): 40 nM

Structure (SMILES): CC[C@H]1OC(=O)[C@H](C)[C@@H](O[C@H]2C[C@@](C)(OC)[C@@H](O)[C@H](C)O2)[C@H](C)[C@@H](O[C@@H]2O[C@H](C)C[C@H](N(C)CC(C)C)[C@H]2O)C(C)(O)C[C@@H](C)C[C@H](C)[C@@H](O)[C@]1(C)O (some centres unmarked) [Compound I-d, N-Desmethyl-N-isobutyl-9-desoxoerythromycin A]
inhibition at 10 µM (hERG potassium channel): 33.1% | inhibition at 30 µM (hERG potassium channel): 71.4%
